Data taken from the supplement of paper PMC10307832.

Assays:
Assay in all cases: relative viability (nuclei count vs DMSO), 5 days (fraction); higher = more cells survive
BEN = system: BEN
How it was run: (§1)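 For relative viability, nuclei counts in treated wells were divided by those in vehicle wells. Lung cancer cell lines had been pin-tool dosed in 1536-well plates the day after seeding and cultured for 5 days, then fixed and stained in one step (final 0.05% Triton X-100, 1% formaldehyde, 1 ug/ml Hoechst) and imaged at 4×. Doses were one drug alone or a fixed anchor-drug dose plus five library-drug doses (not always all listed) in √10 steps, and values are duplicate-plate medians.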

EMC-BAC-2 = system: EMC-BAC-2
How it was run: as §1

LC-2-ad = system: LC-2-ad
How it was run: as §1

LXF-289 = system: LXF-289
How it was run: as §1

NCI-H1563 = system: NCI-H1563
How it was run: as §1

NCI-H1623 = system: NCI-H1623
How it was run: as §1

NCI-H1650 = system: NCI-H1650
How it was run: as §1

NCI-H1666 = system: NCI-H1666
How it was run: as §1

NCI-H1915 = system: NCI-H1915
How it was run: as §1

NCI-H1944 = system: NCI-H1944
How it was run: as §1

NCI-H1993 = system: NCI-H1993
How it was run: as §1

NCI-H2085 = system: NCI-H2085
How it was run: as §1

NCI-H2087 = system: NCI-H2087
How it was run: as §1

NCI-H2170 = system: NCI-H2170
How it was run: as §1

NCI-H2228 = system: NCI-H2228
How it was run: as §1

NCI-H2347 = system: NCI-H2347
How it was run: as §1

NCI-H358 = system: NCI-H358
How it was run: as §1

NCI-H650 = system: NCI-H650
How it was run: as §1

NCI-H727 = system: NCI-H727
How it was run: as §1

PC-14 = system: PC-14
How it was run: as §1

RERF-LC-KJ = system: RERF-LC-KJ
How it was run: as §1

SW 900 = system: SW 900
How it was run: as §1

**Q.** What does the source list for Nc1cccc2c1CN(C1CCC(=O)NC1=O)C2=O (stereo not drawn) [Lenalidomide] + CCNC(=O)c1noc(-c2cc(C(C)C)c(O)cc2O)c1-c1ccc(CN2CCOCC2)cc1 [Luminespib] (partner 0.01 µM)?
**A.** relative viability (BEN; first compound 0.253 µM): 0.427; relative viability (BEN; first compound 0.8 µM): 0.233; relative viability (BEN; first compound 2.53 µM): 0.607; relative viability (BEN; first compound 8 µM): 0.246; relative viability (EMC-BAC-2; first compound 0.253 µM): 1.22; relative viability (EMC-BAC-2; first compound 0.8 µM): 1.1; relative viability (EMC-BAC-2; first compound 2.53 µM): 1.23; relative viability (EMC-BAC-2; first compound 8 µM): 1.11; relative viability (LC-2-ad; first compound 0.253 µM): 0.912; relative viability (LC-2-ad; first compound 2.53 µM): 1.03; relative viability (LC-2-ad; first compound 8 µM): 1.18; relative viability (LXF-289; first compound 0.253 µM): 0.799; relative viability (LXF-289; first compound 0.8 µM): 0.686; relative viability (LXF-289; first compound 2.53 µM): 0.768; relative viability (LXF-289; first compound 8 µM): 0.725; relative viability (NCI-H1563; first compound 0.253 µM): 0.535; relative viability (NCI-H1563; first compound 0.8 µM): 0.526; relative viability (NCI-H1563; first compound 2.53 µM): 0.468; relative viability (NCI-H1563; first compound 8 µM): 0.581; relative viability (NCI-H1623; first compound 0.253 µM): 0.413; relative viability (NCI-H1623; first compound 0.8 µM): 0.474; relative viability (NCI-H1623; first compound 2.53 µM): 0.557; relative viability (NCI-H1623; first compound 8 µM): 0.399; relative viability (NCI-H1650; first compound 0.8 µM): 0.197; relative viability (NCI-H1650; first compound 2.53 µM): 0.196; relative viability (NCI-H1650; first compound 8 µM): 0.202; relative viability (NCI-H1666; first compound 0.253 µM): 0.977; relative viability (NCI-H1666; first compound 2.53 µM): 1.02; relative viability (NCI-H1666; first compound 8 µM): 1.04; relative viability (NCI-H1915; first compound 0.253 µM): 0.818; relative viability (NCI-H1915; first compound 0.8 µM): 0.845; relative viability (NCI-H1915; first compound 2.53 µM): 0.802; relative viability (NCI-H1915; first compound 8 µM): 0.915; relative viability (NCI-H1944; first compound 0.253 µM): 0.675; relative viability (NCI-H1944; first compound 0.8 µM): 0.777; relative viability (NCI-H1944; first compound 2.53 µM): 0.871; relative viability (NCI-H1944; first compound 8 µM): 0.502; relative viability (NCI-H1993; first compound 0.253 µM): 0.66; relative viability (NCI-H1993; first compound 0.8 µM): 0.726; relative viability (NCI-H1993; first compound 2.53 µM): 0.767; relative viability (NCI-H1993; first compound 8 µM): 0.743; relative viability (NCI-H2085; first compound 0.253 µM): 0.487; relative viability (NCI-H2085; first compound 0.8 µM): 0.487; relative viability (NCI-H2085; first compound 2.53 µM): 0.367; relative viability (NCI-H2085; first compound 8 µM): 0.437; relative viability (NCI-H2087; first compound 0.253 µM): 0.233; relative viability (NCI-H2087; first compound 0.8 µM): 0.156; relative viability (NCI-H2087; first compound 2.53 µM): 0.14; relative viability (NCI-H2087; first compound 8 µM): 0.169; relative viability (NCI-H2170; first compound 0.253 µM): 0.683; relative viability (NCI-H2170; first compound 0.8 µM): 0.799; relative viability (NCI-H2170; first compound 2.53 µM): 0.588; relative viability (NCI-H2170; first compound 8 µM): 0.426; relative viability (NCI-H2228; first compound 0.253 µM): 0.156; relative viability (NCI-H2228; first compound 0.8 µM): 0.103; relative viability (NCI-H2228; first compound 2.53 µM): 0.115; relative viability (NCI-H2228; first compound 8 µM): 0.189; relative viability (NCI-H2347; first compound 0.253 µM): 0.507; relative viability (NCI-H2347; first compound 0.8 µM): 0.627; relative viability (NCI-H2347; first compound 2.53 µM): 0.454; relative viability (NCI-H2347; first compound 8 µM): 0.249; relative viability (NCI-H358; first compound 0.253 µM): 0.419; relative viability (NCI-H358; first compound 0.8 µM): 0.377; relative viability (NCI-H358; first compound 2.53 µM): 0.437; relative viability (NCI-H358; first compound 8 µM): 0.576; relative viability (NCI-H650; first compound 0.253 µM): 0.905; relative viability (NCI-H650; first compound 2.53 µM): 0.831; relative viability (NCI-H650; first compound 8 µM): 0.823; relative viability (NCI-H727; first compound 0.253 µM): 0.45; relative viability (NCI-H727; first compound 0.8 µM): 0.316; relative viability (NCI-H727; first compound 2.53 µM): 0.473; relative viability (NCI-H727; first compound 8 µM): 0.477; relative viability (PC-14; first compound 0.253 µM): 0.152; relative viability (PC-14; first compound 0.8 µM): 0.191; relative viability (PC-14; first compound 2.53 µM): 0.151; relative viability (PC-14; first compound 8 µM): 0.133; relative viability (RERF-LC-KJ; first compound 0.253 µM): 1.28; relative viability (RERF-LC-KJ; first compound 0.8 µM): 1.29; relative viability (RERF-LC-KJ; first compound 2.53 µM): 1.12; relative viability (RERF-LC-KJ; first compound 8 µM): 1.32; relative viability (SW 900; first compound 0.253 µM): 0.195; relative viability (SW 900; first compound 2.53 µM): 0.189; relative viability (SW 900; first compound 8 µM): 0.183
